Drawing on ChEMBL document CHEMBL1629589, “Activity of the oral neuraminidase inhibitor A-322278 against the oseltamivir-resistant H274Y (A/H1N1) influenza virus mutant in mice” (2009), this text covers Activity, Time and PFU for two compounds.

Holding throughout (assay type): functional
For test [1], the system named is Influenza A virus. Briefly: Antiviral activity against recombinant Influenza A virus (A/WSN/1933(H1N1)) H274Y mutant infected in BALB/c mouse assessed as reduction in body weight at 1 mg/kg, po administered 4 hrs before infection for 5 days measured on day 5 (reference value: 22.2 %). Also noted: scale not given: the % may be the effect or the level left.
The subject of test [2] is Influenza A virus. Briefly: Antiviral activity against recombinant Influenza A virus (A/WSN/1933(H1N1)) H274Y mutant infected in BALB/c mouse assessed as reduction in body weight at 1 mg/kg, po administered 48 hrs postinfection for 5 days measured on day 5 (reference value: 22.2 %). Also noted: scale not given: the % may be the effect or the level left.
Test [3] deals with Influenza A virus. Nature of the test: Antiviral activity against recombinant Influenza A virus (A/WSN/1933(H1N1)) H274Y mutant infected in BALB/c mouse assessed as reduction in body weight at 10 mg/kg, po administered 48 hrs postinfection for 5 days measured on day 5 (reference value: 22.2 %). Also noted: scale not given: the % may be the effect or the level left.
For test [4], the system named is Influenza A virus. Briefly: Antiviral activity against recombinant Influenza A virus (A/WSN/1933(H1N1)) H274Y mutant infected in BALB/c mouse assessed as mortality rate at 1 mg/kg, po administered 4 hrs before infection for 5 days measured on day 5 (reference value: 100 %).
Test [5] relates to Influenza A virus. Briefly: Antiviral activity against recombinant Influenza A virus (A/WSN/1933(H1N1)) H274Y mutant infected in BALB/c mouse assessed as mortality rate at 1 mg/kg, po administered 48 hrs postinfection for 5 days measured on day 5 (reference value: 100 %).
The test system of test [6] is Influenza A virus. Nature of the test: Antiviral activity against recombinant Influenza A virus (A/WSN/1933(H1N1)) H274Y mutant infected in BALB/c mouse assessed as mortality rate at 10 mg/kg, po administered 48 hrs postinfection for 5 days measured on day 5 (reference value: 100 %).
Test [7] concerns Influenza A virus. Briefly: Antiviral activity against recombinant Influenza A virus (A/WSN/1933(H1N1)) H274Y mutant infected in BALB/c mouse assessed as time to death at 10 mg/kg, po administered 48 hrs postinfection for 5 days (reference value: 5.1 days).
Test [8] deals with Influenza A virus. Nature of the test: Antiviral activity against recombinant Influenza A virus (A/WSN/1933(H1N1)) H274Y mutant infected in BALB/c mouse assessed as time to death at 1 mg/kg, po administered 4 hrs before infection on day 5 (reference value: 5.1 days).
For test [9], the system named is Influenza A virus. Briefly: Antiviral activity against recombinant Influenza A virus (A/WSN/1933(H1N1)) H274Y mutant infected in BALB/c mouse assessed as lung viral titer at 1 mg/kg, po administered 4 hrs before infection for 5 days measured on day 4 (reference value: 1 x 10^6 +/- 0.3 x 10^6 PFU).
Test [10] relates to Influenza A virus. Nature of the test: Antiviral activity against recombinant Influenza A virus (A/WSN/1933(H1N1)) H274Y mutant infected in BALB/c mouse assessed as lung viral titer at 1 mg/kg, po administered 48 hrs postinfection for 5 days measured on day 4 (reference value: 1 x 10^6 +/- 0.3 x 10^6 PFU).
Test [11] concerns Influenza A virus. Briefly: Antiviral activity against recombinant Influenza A virus (A/WSN/1933(H1N1)) H274Y mutant infected in BALB/c mouse assessed as lung viral titer at 10 mg/kg, po administered 48 hrs postinfection for 5 days measured on day 4 (reference value: 1 x 10^6 +/- 0.3 x 10^6 PFU).
For test [12], the system named is Influenza A virus. Briefly: Antiviral activity against recombinant Influenza A virus (A/WSN/1933(H1N1)) H274Y mutant infected in BALB/c mouse assessed as lung viral titer at 10 mg/kg, po administered 4 hrs before infection for 5 days measured on day 4 (reference value: 1 x 10^6 +/- 0.3 x 10^6 PFU).
Test [13] has as its system Influenza A virus. Briefly: Antiviral activity against recombinant Influenza A virus (A/WSN/1933(H1N1)) H274Y mutant infected in BALB/c mouse assessed as mortality rate at 10 mg/kg, po administered 4 hrs before infection for 5 days measured on day 5 (reference value: 100 %).
For test [14], the system named is Influenza A virus. Nature of the test: Antiviral activity against recombinant Influenza A virus (A/WSN/1933(H1N1)) H274Y mutant infected in BALB/c mouse assessed as reduction in body weight at 10 mg/kg, po administered 4 hrs before infection for 5 days measured on day 5 (reference value: 22.2 %). Also noted: scale not given: the % may be the effect or the level left.

The subject of test [15] is Influenza A virus. Briefly: Antiviral activity against recombinant Influenza A virus (A/WSN/1933(H1N1)) H274Y mutant infected in BALB/c mouse assessed as time to death at 1 mg/kg, po administered 48 hrs postinfection for 5 days (reference value: 5.1 days).

In the case of `C/C=C\[C@@H]1C[C@H](C(=O)OC(C)C)N[C@H]1[C@@H](NC(C)=O)[C@](C)(CCC)OC`, the Activity in the test with Influenza A virus [1] was 10.8%; in the test with Influenza A virus [2], 19%; with Influenza A virus [3], 15.6%; with Influenza A virus [4] it was 0%; in the test with Influenza A virus [5], 75%; in the test on Influenza A virus [6], 25%. The Activity came to 0% with Influenza A virus [13] and 5% with Influenza A virus [14]. The Time with Influenza A virus [7] was 5.4 days; in the test with Influenza A virus [8], 5 days. Further, the PFU is listed as 69000 in the test with Influenza A virus [9], 83000 in the test on Influenza A virus [10], 130000 with Influenza A virus [11] and 35000 with Influenza A virus [12].
Take `CCOC(=O)C1=C[C@@H](OC(CC)CC)[C@H](NC(C)=O)[C@@H](N)C1` [OSELTAMIVIR]: the Activity came to 23.7% with Influenza A virus [1]; 20.1% in the test on Influenza A virus [2]; 21.5% in the test on Influenza A virus [3]; 100% in the test with Influenza A virus [4]; 100% in the test on Influenza A virus [5]; 75% in the test on Influenza A virus [6]. Also, the Time with Influenza A virus [15] was 5 days; in the test with Influenza A virus [7] it was 5.2 days; with Influenza A virus [8], 5.1 days. Besides, the values for the PFU in the test with Influenza A virus [9], with Influenza A virus [10] and with Influenza A virus [11] were 190000, 230000 and 13000, respectively.
